Data set [1] has as its system BT4554. The data set can be described thus: B. thetaiotaomicron loss-of-function screen, bt4554 deletion and complementation. It is filed as in vitro ADME, Bacteroides thetaiotaomicron. An excerpt: Two independent strategies were developed to identify the microbiome-encoded DMEs responsible for these chemical transformations. For members of the Bacteroides (the most prominent genus in the human gut microbiome in the experiments), Proteobacteria, and other genetically tractable species, Insertion Sequencing (INSeq) is used to make mapped, arrayed transposon mutant libraries as described in Goodman 2009 and Goodman 2011. From these libraries, a representative set of mutants was identified that collectively include disruptions in most non-essential genes. Each mutant was incubated with the pool of drugs metabolized by the parent species. Genes required for drug metabolism by LC-MS were identified as above.
1,352 B. thetaiotaomicron mutants were selected from an arrayed library as described in Goodman 2009 that disrupt ˜70% of its non-essential genes. Each mutant was incubated with a pool of 30 drugs metabolized by this organism. Drug levels were measured over time as above. […] FIGS. 10A-C show two examples: one of these is brivudine, an antiviral whose primary metabolite (bromovinyluracil; BVU) is dangerously toxic for patients taking 5-fluorouracil, a principal therapy for colorectal cancer. With reference to FIGS. 10A-C, transposon mutants representing disruptions in 70% of B. thetaiotaomicron (Bt) non-essential genes were screened for metabolism of 30 drugs targeted by the parent strain.
The contribution of microbial drug metabolism to serum drug and metabolite exposure was directly quantified by specifically modulating this activity in otherwise identical mice. To this end, the capacity of ten individual bacterial species was first determined, representing five major phyla that dominate the mammalian gut microbiota, for their capacity to convert BRV to BVU as illustrated in FIG. 14A. […]
Frozen stocks are re-suspended in 4 mL pre-reduced GMM and incubated anaerobically at 37° C. for 14 h. […] Substrates and reaction product are extracted and quantified by LC-MS as described below. […]

Data set [2] deals with Bacteroides thetaiotaomicron. The data set can be described thus: BRV conversion assay with gut isolates. It is filed as in vitro ADME. Particulars: among ten bacterial species. Here is the method: (§1) Frozen stocks of bacteria (Table 4) are plated on BHI blood agar and incubated at 37° C. under anaerobic conditions. Single colonies are inoculated into 4 mL pre-reduced GMM and incubated anaerobically at 37° C. for 24 h (Akkermansia muciniphila for 48 hours). BRV conversion assays are performed with the resulting dense cultures, as described above for bacterial communities.

Data set [3] concerns Bacteroides ovatus. The class given is in vitro ADME. On the procedure: as §1
For data set [4] the following is noted: model parameter; Clinical Virology 3rd edition, 2009; cited from earlier work.

Take `O=c1[nH]c(=O)n([C@H]2C[C@H](O)[C@@H](CO)O2)cc1/C=C/Br` [BRV, Brivudine]: the “role of bt4554 in BRV conversion to BVU” value in data set [1] (targeted gene deletion and complementation at different expression levels) is “necessary and sufficient”. In addition, in data set [1] (transposon mutant, recapitulated by nonpolar deletion), the “conversion to BVU by mutant in BT4554” value is on record as “unable to convert”. Moreover, the “capacity to convert BRV to BVU” value in data set [2] and in data set [3] was “highest metabolic activity” in each case. Moreover, the “F, bioavailability of the drug” value in data set [4] was 0.3 fraction.

Source of the values: patent publication US20210183467A1, “SYSTEM AND METHOD FOR USING MICROBIOME TO DE-RISK DRUG DEVELOPMENT” (YALE UNIVERSITY, priority 2018, published 2021).
